Measured values reported in the NIST ThermoML archive (doi:10.1021/je0503251).
Numbers after ± are expanded uncertainties.

Conditions: Liquid, Closed cell (Static) method

FC(F)CC(F)(F)F [1,1,1,3,3-pentafluoropropane]
Conditions | vapor or sublimation pressure [kPa]
253.12 K | 19.34 ± 0.7
258.16 K | 25.37 ± 0.7
263.13 K | 32.79 ± 0.7
268.12 K | 41.88 ± 0.7
273.12 K | 52.91 ± 0.71
278.12 K | 66.17 ± 0.71
283.15 K | 82.07 ± 0.71
285.14 K | 89.11 ± 0.71
288.12 K | 100.56 ± 0.72
293.09 K | 122.2 ± 0.72
295.08 K | 131.93 ± 0.73
298.06 K | 147.46 ± 0.73
303.06 K | 177.01 ± 0.75
305.05 K | 190.2 ± 0.76
308.05 K | 210.95 ± 0.77
310.09 K | 225.91 ± 0.78
313.1 K | 249.94 ± 0.79
315.08 K | 266.8 ± 0.8
318.12 K | 294.26 ± 0.82
320.17 K | 312.44 ± 0.84
323.16 K | 343.03 ± 0.86
325.16 K | 364.63 ± 0.88
328.16 K | 398.98 ± 0.91
330.16 K | 423.22 ± 0.93
333.16 K | 461.65 ± 0.97
338.16 K | 531.78 ± 1
343.16 K | 609.29 ± 1.1
345.16 K | 642.58 ± 1.2
348.16 K | 695.02 ± 1.2
353.16 K | 789.45 ± 1.3
358.16 K | 893.28 ± 1.5
363.16 K | 1007 ± 1.6
368.13 K | 1130.3 ± 1.8
373.13 K | 1265.7 ± 2
378.16 K | 1413.6 ± 2.2
383.15 K | 1573.3 ± 2.5
388.14 K | 1745.4 ± 2.7
393.14 K | 1932.2 ± 3
398.12 K | 2133.2 ± 3.3
403.07 K | 2348.2 ± 3.7

COCOC [dimethoxymethane]
Conditions | vapor or sublimation pressure [kPa]
283.13 K | 27.73 ± 1.4
285.13 K | 30.39 ± 1.4
288.11 K | 34.73 ± 1.4
293.07 K | 43.08 ± 1.4
295.07 K | 46.83 ± 1.4
298.07 K | 52.94 ± 1.4
300.07 K | 57.14 ± 1.4
303.05 K | 64.26 ± 1.4
305.05 K | 69.42 ± 1.4
308.05 K | 77.74 ± 1.4
310.07 K | 83.8 ± 1.4
313.16 K | 93.85 ± 1.4
318.13 K | 111.95 ± 1.4
323.17 K | 132.98 ± 1.4
325.18 K | 142.06 ± 1.4
328.17 K | 156.44 ± 1.4
330.17 K | 166.67 ± 1.4
333.17 K | 182.96 ± 1.4
335.17 K | 194.47 ± 1.4
338.16 K | 212.79 ± 1.4
340.16 K | 225.73 ± 1.4
343.16 K | 246.24 ± 1.4
345.16 K | 260.68 ± 1.4
348.16 K | 283.65 ± 1.5
353.16 K | 325.16 ± 1.5
358.16 K | 371.53 ± 1.5
363.16 K | 421.82 ± 1.5
368.16 K | 477.61 ± 1.6
373.15 K | 538.51 ± 1.6
378.16 K | 605.33 ± 1.6
383.13 K | 677.68 ± 1.7
388.15 K | 757.05 ± 1.8
393.16 K | 842.82 ± 1.9
398.15 K | 935.48 ± 1.9
